# Assay results: patent US4985445A, “Cancer cell metastasis inhibitors and novel compounds” (Meiji Seika Kaisha, Ltd., priority 1988, dated 1991)
# Counter-ions that a name gives are not always drawn. Like-named read-outs stand apart in the source and are kept apart here.
# What was measured:
# [1] = system: B16 subline of high pulmonary metastatic potential; assay: Inhibition of pulmonary metastasis of B16 subline pretreated with compound and injected i.v. into BDF1 mice; format: in vivo, murine; mouse BDF1; details: for Inhibition of metastasis to the lungs (in words): B16 subline, BDF1 mice
# Protocol: Based on the method described priviously (Method in Cancer Research, 15, 399-439, 1978), a subline of high metastatic potential (high pulmonary colonization) was selected from murine melanoma B16 by repeating the i.v. transplantation of the tumor cells in BDF1 mice and the isolation of pulmonary metastatic clones.
# Evaluation of the metastasis inhibiting activity was performed based on the method described previously (Proc. Natl Acad. Sci. USA, 83, 1752-1756, 1986, Cancer Research, 46, 858-862, 1986).
# Firstly, the B16 subline of high metastatic potential was inoculated into Dulbecco's ME medium (DME medium) supplemented with 10% bovine fetal serum and the compound represented by general formula (I) described above was added thereto.
# The B16 subline of high pulmonary metastatic potential was inoculated into DME medium supplemented with 10% bovine fetal serum and 30, 100 or 300 μg/ml of N (3-phenylpropyl)-1-deoxynojirimycin was added thereto followed by incubation at 37° C. for 3 days in the presence of 5% CO2.
# Inhibition of metastasis was examined in a manner similar to Test Example 2 except that N-(3-phenyl-2-propenyl)-1-deoxy-nojirimycin and N-(3-p-chlorophenyl-3-methyl-2-propenyl)-1-deoxynojirimycin were used instead of N-(3-phenylpropyl)-1-deoxynojirimycin in Test Example 2. In this test example, however, 2.5×10^5 cells each of the B16 subline were transplanted to 3 mice for each group.
# The B16 subline of high pulmonary metastatic potential was inoculated into DME medium supplemented with 10% bovine fetal serum and 30 μg/ml of N-(4-phenoxy-trans-2-butenyl)-1-deoxynojirimycin was added thereto followed by incubation at 37° C. for 3 days in the presence of 5% CO2. […] The number of colonies of the B16 subline formed on the surface of and in the lung was counted.
# Inhibition of metastasis was examined in a manner similar to Test Example 5 except that N-(2-phenoxyethyl)-1-deoxynojirimycin was used instead of N-(4-phenoxy-trans-2-butenyl)-1-deoxynojirimycin in Test Example 5.
# The B16 sibline of high pulmonary metastatic potential was inoculated into DME medium supplemented with 10% bovine fetal serum and 10 μg/ml of D-glucaro-δ-lactam calcium salt was added thereto followed by incubation at 37° C. for 3 days in the presence of 5% CO2. […] The number of the colonies formed on the surface of and in the lung was counted.
# Inhibition of metastasis was examined in a manner similar to Test Example 8 except that D-glucaro-δ-lactam methyl ester and D-glucaro-δ-lactam ethyl ester were used instead of D-glucaro-δ-lactam calcium salt in Test Example 8.
# The B16 subline of high pulmonary metastatic potential was inoculated into DME medium supplemented with 10% bovine fetal serum and 10 μg/ml of 2,6-di-O-(acetylsalicyloyl)-D-gluco-δ-lactam was added thereto followed by incubation at 37° C. for 3 days in the presence of 5% CO2.
# The B16 subline of high pulmonary metastatic potential was inoculated into DME medium supplemented with 10% bovine fetal serum and 30 μg/ml of 6-O-triphenylmethyl-D-gluco-δ-lactam was added thereto followed by incubation at 37° C. for 3 days in the presence of 5% CO2.
# The B16 subline of high pulmonary metastatic potential was inoculated into DME medium supplemented with 10% bovine fetal serum and 30 μg/ml of 1-deoxynojirimycin was added thereto followed by incubation at 37° C. for 3 days in the presence of 5% CO2.
# [2] = Acute toxicity (LD50) by mice; details: mouse, in vivo
# [3] = system: murine tumor cell line L 929; assay: Cytotoxic activity against L 929 (growth observed with inverted microscope, 4 days); format: cell-based; details: for Growth: 4 days;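 on growth: + means growth and ± means marked inhibition and - means cell death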
# Protocol: The B16 subline of high pulmonary metastatic potential and murine tumor cell line L 929 were cultured in DME medium supplemented with 10% bovine fetal serum at 37° C. in the presence of 5% CO2.
# The B16 subline of high pulmanary metastatic potential and murine tumor cell line L 929 were cultured in DME medium supplemented with 10% bovine fetal serum at 37° C. in the presence of 5% CO2.
# [4] = system: B16 subline of high pulmonary metastatic potential; details: 3 days;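 further: + means growth and ± means marked inhibition and - means cell death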
# Protocol: (§1) The B16 subline of high pulmonary metastatic potential and murine tumor cell line L 929 were cultured in DME medium supplemented with 10% bovine fetal serum at 37° C. in the presence of 5% CO2. Then, cells were detached from the Petri dish with trypsin-EDTA solution. The B16 subline and L 929 were suspended in the medium described above in 1×10^4 cells/ml and 1×10^3 cells/ml, respectively. Each suspension, 150 μl, was added to 50 μl of N-(3-phenylpropyl)-1-deoxynojirimycin solution or Adriamycin (control) solution. Incubation was performed for 3 days for the B16 subline and for 4 days for L 929 strain.
# as §1, with “of N-(4-phenoxy-trans-2-butenyl)-1-deoxynojirimycin” for “of N-(3-phenylpropyl)-1-deoxynojirimycin”, “days in” for “days for”, “L 929.” for “L 929 strain.”
# as §1, with “of D-glucaro-δ-lactam calcium salt” for “of N-(3-phenylpropyl)-1-deoxynojirimycin”, “(control) solutions.” for “(control) solution.”, “days in” for “days for”, “L 929.” for “L 929 strain.”
# The B16 subline of high pulmonary metastatic potential and murine tumor cell line L 929 were cultured in DME medium supplemented with 10% bovine fetal serum at 37° C. in the presence of 5% CO2. Then, cells were detached from the Petri dish with trypsin-EDTA solution. The B16 subline and L 929 were suspended in the medium described above in 1×10^4 cells/ml and 1×10^3 cells/ml, respectively. Each suspension, 150 μl, was added to 50 μl of 2,6-di-O-(1-(p-chlorobenzoyl)-5-methoxy-2-methylindole-3-acetyl)-D-gluco-δ-lactam solution or and Adriamycin (control) solutions. Incubation was performed for 3 days in the B16 subline and for 4 days in L 929.
# The B16 subline of high pulmanary metastatic potential and murine tumor cell line L 929 were cultured in DME medium supplemented with 10% bovine fetal serum at 37° C. in the presence of 5% CO2. Then, cells were detached from the Petri dish with trypsin-EDTA solution. The B16 subline and L 929 were suspended in the medium described above in 1×10^4 cells/ml and 1×10^3 cells/ml, respectively. Each suspension, 150 μl, was added to 50 μl of 6-O-triphenylmethyl-D-gluco-δ-lactam solution or Adriamycin (control) solutions. Incubation was performed for 3 days in the B16 sibline and for 4 days in L 929.
# The B16 subline of high pulmonary metastatic potential was inoculated into DME medium supplemented with 10% bovine fetal serum and 30 μg/ml of 1-deoxynojirimycin was added thereto followed by incubation at 37° C. for 3 days in the presence of 5% CO2. […] Next, the cells were detached from the Petri dish with trypsin-EDTA solution. The cells were suspended in PBS- in 1×10^6 cells/ml as viable cells. This suspension, 0.1 ml, was intravenously injected in the tail vein of the mouse BDF1 (8 week age, male; 1 group, 3 mice). After feeding for 14 days, the mouse was sacrificed to excise the lungs. The number of colonies of the B16 subline on the surface of and in the lungs was counted.
# [5] = Table 10, 30 μg/ml, None 82 ± 11.2
compound,measurement,setting,value
"OC[C@H]1NC[C@H](O)[C@@H](O)[C@@H]1O [1-Deoxynojirimycin, 1-deoxynojirimycin]",Inhibition of metastasis to the lungs (in words),[1],the number of colonies on the surface of and in the lungs was markedly inhibited
same,Pulmonary Metastasis (Mean ± Standard Deviation),"[1]; Table 15, 30 μg/ml, 3 mice, None 119 ± 37",31 ± 11 no.
"CC(=O)Oc1ccccc1C(=O)OC[C@H]1NC(=O)[C@H](OC(=O)c2ccccc2OC(C)=O)[C@@H](O)[C@@H]1O [2,6-di-O-(acetylsalicyloyl)-D-gluco-δ-lactam]",Inhibition of metastasis to the lungs (in words),[1],markedly inhibited
same,Pulmonary Metastasis (Mean ± Standard Deviation),"[1]; Table 12, 10 μg/ml, 3 mice, None 53 ± 22.4",11.2 ± 3.5 no.
same,LD50,[2]; ip,> 500 mg/kg
"COc1ccc2c(c1)c(CC(=O)OC[C@H]1NC(=O)[C@H](OC(=O)Cc3c(C)n(C(=O)c4ccc(Cl)cc4)c4ccc(OC)cc34)[C@@H](O)[C@@H]1O)c(C)n2C(=O)c1ccc(Cl)cc1 [2,6-di-O-[1-(p-chlorobenzoyl)-5-methoxy-2-methylindole-3-acetyl]-D-gluco-δ-lactam]",Cytotoxicity (in words),"[3]; L 929, even at a concentration as high as 10 μg/ml",did not show marked cytotoxity
same,Growth,"[3]; Table 11, L 929, 3 μg/ml",+
same,Growth,"[3]; Table 11, L 929, 10 μg/ml",+
same,Growth,"[3]; Table 11, L 929, 30 μg/ml",+
same,Growth,"[4]; Table 11, B16 subline, 10 μg/ml",+
"COc1cccc2c1C(=O)c1c(O)c3c(c(O)c1C2=O)C[C@@](O)(C(=O)CO)C[C@@H]3O[C@H]1C[C@H](N)[C@H](O)[C@H](C)O1 [Adriamycin, reference compound]",Growth,"[3]; Table 2, L 929, 1 μg/ml, control",-
same,Growth,"[3]; Table 5, L 929, 1 μg/ml, control",-
same,Growth,"[3]; Table 8, L 929, 1 μg/ml, control",-
same,Growth,"[3]; Table 11, L 929, 1 μg/ml, control",-
same,Growth,"[3]; Table 13, L 929, 1 μg/ml, control",-
same,Growth,"[4]; Table 2, B16 subline, 0.1 μg/ml, control",-
same,Growth,"[4]; Table 5, B16 subline, 0.1 μg/ml, control",-
same,Growth,"[4]; Table 8, B16 subline, 0.1 μg/ml, control",-
same,Growth,"[4]; Table 11, B16 subline, 0.1 μg/ml, control",-
same,Growth,"[4]; Table 13, B16 subline, 0.1 μg/ml, control",-
"O=C(O)[C@H]1NC(=O)[C@H](O)[C@@H](O)[C@@H]1O [D-Glucaro-δ-lactam calcium salt, D-glucaro-δ-lactam calcium salt]",Cytotoxicity (in words),"[3]; L 929, even at a concentration as high as 30 μg/ml",did not show marked cytotoxicity
same,Growth,"[3]; Table 8, L 929, 10 μg/ml",+
same,Growth,"[3]; Table 8, L 929, 30 μg/ml",+
same,Inhibition of metastasis to the lungs (in words),[1],markedly inhibited
same,"Pulmonary Metastasis, Mouse 1","[1]; Table 9, 10 μg/ml, 14 days",7 no.
same,"Pulmonary Metastasis, Mouse 2","[1]; Table 9, 10 μg/ml, 14 days",4 no.
same,"Pulmonary Metastasis, Mouse 3","[1]; Table 9, 10 μg/ml, 14 days",0 no.
same,Pulmonary Metastasis (Mean ± Standard Deviation),"[1]; Table 9, 10 μg/ml, 14 days, None 69 ± 1.0",3.7 ± 3.5 no.
same,"Pulmonary Metastasis, %","[1]; Table 9, 10 μg/ml, None = 100",5.4%
same,Growth,"[4]; Table 8, B16 subline, 10 μg/ml",+
same,Growth,"[4]; Table 8, B16 subline, 30 μg/ml",+
"CCOC(=O)[C@H]1NC(=O)[C@H](O)[C@@H](O)[C@@H]1O [D-Glucaro-δ-lactam ethyl ester, D-glucaro-δ-lactam ethyl ester]",Inhibition of metastasis to the lungs (in words),[1],markedly inhibited
same,Pulmonary Metastasis (Mean ± Standard Deviation),[1]; [5],13 ± 5.4 no.
"COC(=O)[C@H]1NC(=O)[C@H](O)[C@@H](O)[C@@H]1O [D-Glucaro-δ-lactam methyl ester, D-glucaro-δ-lactam methyl ester]",Inhibition of metastasis to the lungs (in words),[1],markedly inhibited
same,Pulmonary Metastasis (Mean ± Standard Deviation),[1]; [5],21 ± 8.5 no.
same,LD50,[2]; iv,> 5000 mg/kg
same,LD50,[2]; po,> 10000 mg/kg
O=C(O)[C@H]1NC(=O)[C@H](O)[C@@H](O)[C@@H]1O [D-Glucaro-δ-lactam sodium salt],LD50,[2]; iv,> 3000 mg/kg
same,LD50,[2]; po,> 5000 mg/kg
"OC[C@@H]1[C@@H](O)[C@H](O)[C@@H](O)CN1CCOc1ccccc1 [N-(2-Phenoxyethyl)-1-deoxynojirimycin, N-(2-phenoxyethyl)-1-deoxynojirimycin]",Inhibition of metastasis to the lungs (in words),[1],markedly inhibited
same,Pulmonary Metastasis (Mean ± Standard Deviation),"[1]; Table 7, 100 μg/ml, None 86 ± 22.1",7 ± 2.1 no.
CC(=CCN1C[C@H](O)[C@@H](O)[C@H](O)[C@H]1CO)c1ccc(Cl)cc1 [N-(3-p-chlorophenyl-3-methyl-2-propenyl)-1-deoxynojirimycin],Inhibition of metastasis to the lungs (in words),[1],markedly inhibited
OC[C@@H]1[C@@H](O)[C@H](O)[C@@H](O)CN1CC=Cc1ccccc1 [N-(3-phenyl-2-propenyl)-1-deoxynojirimycin],Inhibition of metastasis to the lungs (in words),[1],markedly inhibited
same,Pulmonary Metastasis (Mean ± Standard Deviation),"[1]; Table 4, 30 μg/ml, 2.5×10^5 cells, 3 mice, None 109 ± 32.0",16.8 ± 12.6 no.
same,LD50,[2]; ip,> 500 mg/kg
